Test results reported in ChEMBL document CHEMBL1129149, “Synthesis and biological evaluation of 4-alkoxysubstituted trinems. Part II” (1996).
Converted amounts (≈) assume the structure as drawn.

Legend:
Assay type in all cases: functional
[1] = test system: Clostridium perfringens; assay: In vitro antibacterial activity against Clostridium perfringens 615E strain and compared to imipenem
[2] = test system: Escherichia coli; assay: In vitro antibacterial activity against Escherichia coli 1850E strain and compared to imipenem
[3] = test system: Enterococcus faecalis; assay: In vitro antibacterial activity against […] 850 strain and compared to imipenem
[4] = test system: Staphylococcus aureus; assay: In vitro antibacterial activity against Staphylococcus aureus 853E beta-lactamase producing strain and compared to imipenem,
[5] = test system: Pseudomonas aeruginosa; assay: In vitro antibacterial activity against Pseudomonas aeruginosa 1911E strain and compared to imipenem
[6] = test system: Staphylococcus aureus; assay: In vitro antibacterial activity against Staphylococcus aureus 663E strain and compared to imipenem
[7] = test system: Escherichia coli; assay: In vitro antibacterial activity against Escherichia coli 1919E beta-lactamase producing strain and compared to imipenem

Structure (SMILES)	MIC [1] [µg/mL]	MIC [2] [µg/mL]	MIC [3] [µg/mL]	MIC [4] [µg/mL]	MIC [5] [µg/mL]	MIC [6] [µg/mL]	MIC [7] [µg/mL]
C[C@@H](O)[C@H]1C(=O)N2C(C(=O)[O-])=C3[C@@H](OCCCN)CCC[C@@H]3[C@H]12.[Na+]	60	0.5	4	0.2	16	0.2	0.5
C[C@@H](O)[C@H]1C(=O)N2C(C(=O)O)=C(SCCNC=N)C[C@H]12 [IMIPENEM ANHYDROUS]	30 (≈ 100 µM)	0.5 (≈ 1.67 µM)	2 (≈ 6.68 µM)	0.12 (≈ 0.401 µM)	4 (≈ 13.4 µM)	0.12 (≈ 0.401 µM)	0.5 (≈ 1.67 µM)
C[C@@H](O)[C@H]1C(=O)N2C(C(=O)[O-])=C3[C@@H](OCCN=[N+]=[N-])CCC[C@@H]3[C@H]12.[Na+]	30	8	4	0.5	> 32	0.25	1
C[C@@H](O)[C@H]1C(=O)N2C(C(=O)[O-])=C3[C@@H](OCCCO)CCC[C@@H]3[C@H]12.[Na+]	30	2	8	0.5	> 32	0.2	1
C[C@@H](O)[C@H]1C(=O)N2C(C(=O)[O-])=C3[C@@H](OCCCN=[N+]=[N-])CCC[C@@H]3[C@H]12.[Na+]	60	8	8	0.5	> 32	0.2	1
C[C@@H](O)[C@H]1C(=O)N2C(C(=O)[O-])=C3[C@@H](OCCN)CCC[C@@H]3[C@H]12.[Na+]	120	0.5	8	0.5	8	0.5	0.5
C[C@@H](O)[C@H]1C(=O)N2C(C(=O)[O-])=C3[C@@H](OCC/N=C/N)CCC[C@@H]3[C@H]12.[Na+]	120	1	2	0.5	32	0.25	1
C/C(N)=N\CCO[C@H]1CCC[C@H]2C1=C(C(=O)[O-])N1C(=O)[C@H]([C@@H](C)O)[C@@H]21.[Na+]	120	1	16	2	32	1	0.5
